# Assays:
# [1] = system: MCA-205 sarcoma; assay: Subcutaneous MCA-205 sarcoma tumor model (anti-PD-1 sensitive), SPF-reared mice; type: in vivo, C57BL/6 mice; settings: for anti-cancer activity (tumor size at sacrifice): in the presence of anti-PD-1
# Experimental: FIG. 1A is a schematic of the protocol used to study the effect of a Camu camu extract (CC) alone and additive effect when combined to anti-PD-1 therapy in a murine tumor model sensitive to anti-PD-1 therapy. Syngeneic C57BL/6 mice were implanted with 0.8×10^6 MCA-205 sarcoma, subcutaneously and treated intraperitoneally (i.p.) when tumors reached 20 to 35 mm^2 in size with anti-PD-1 mAb (250 μg/mouse; clone RMP1-14,) or isotype control (clone 2A3) with or without daily oral gavage with 200 mg/kg of [NT] Powder from SunFood). Murine studies. All animal studies were approved by the Institutional Animal Care Committee (CIPA) and carried out in compliance with the Canadian Council on Animal Care guidelines. Murine experiments were conducted using seven-week-old female C57BL/6 mice, obtained from Charles River, Canada. Germ-free female C57BL/6 mice were purchased from the International Microbiome Centre Germ-Free Facility (University of Calgary, Canada) and maintained at the CR-CHUM Germ-Free Facility. Cell culture, reagents and tumor cell lines. MCA-205 fibrosarcoma cells and E0771 mammary adenocarcinoma cells, class I MHC H-2b syngeneic cell lines for C57BL/6 mice, were used for this study. MCA-205 cells were cultured at 37° C. in the presence of 5% CO2 in Roswell Park Memorial Institute (RPMI) 1640 (Gibco-lnvitrogen) containing 10% Fetal bovine serum (FBS) (Wisent), 2 mM L-glutamine (Wisent), 100 IU/ml penicillin/streptomycin (Wisent), 1 mM sodium pyruvate (Wisent) and MEM non-essential amino acids (Gibco-lnvitrogen). E0771 cells were cultured at 37° C. in the presence of 5% CO2 in Dulbecco's Modified Eagle's Medium (DMEM) (Gibco-lnvitrogen) containing 10% FBS (Wisent), 2 mM L-glutamine, 100 IU/ml penicillin/streptomycin (Wisent), 1 mM sodium pyruvate (Wisent). Subcutaneous model of MCA-205 sarcoma and E0771 breast cancer. Syngeneic C57BL/6 mice were implanted with 0.8×10^6 MCA-205 or 0.5×10^6 E0771 subcutaneously. When tumors reached 20 to 35 mm^2 in size, mice were treated four times (or two times for flow cytometry analysis, see section below) intraperitoneally (i.p.) every three day with anti-PD-1 monoclonal antibody (mAb) (250 μg/mouse; clone RMP1-14, BioXcell) or isotype control (clone 2A3, BioXcell). Upon treatment initiation, mice received a daily oral gavage with the following products: Myrciaria dubia, [NT] raw extract (Sunfood) (200 mg/kg per mouse), fractions from the extraction round 1 (P, INT, NP, Insol) (40.18 mg/kg per mouse), fractions from the extraction round 2 (P1, P2, P3 and P4) (equivalent to fraction P dose of 40.18 mg/kg per mouse), […] (extracted from CC, see isolation process below) (0.85 mg/kg per mouse), ellagic acid (0.85 mg/kg per mouse) (Sigma-Aldrich), urolithin A (0.85 mg/kg per mouse) (Sigma-Aldrich), […] (0.5 mg/kg per mouse) (PhytoProof®, Sigma-Aldrich) and castalagin at different concentration: 1/8, 1/6, 1/4, 1/2 of the standard concentration, at the standard concentration (0.85 mg/kg per mouse), 1.5-fold (1.25 mg/kg per mouse) and three-fold increase concentration (2.55 mg/kg per mouse) (PhytoProof©, Sigma-Aldrich or isolated from food grade oak, see isolation process below). In the control group mice received daily oral gavage with water (100 μL) Tumor area was routinely monitored every three days by means of a caliper. In the depletion experiments, we used the anti-CD8 mAb (150 μg/mouse; clone 53-6.7, BioXcell) or isotype control (clone 2A3, BioXcell.
# [2] = system: CD8^+/Foxp3^+CD4^+ T cells; assay: Immunofluorescence staining (CD4, CD8, Foxp3) of MCA-205 tumors; type: in vivo, C57BL/6 mice; settings: castalagin/IsoPD-1 relative to Water/IsoPD-1
# Text: FIG. 10B Representative images for the CD4, CD8 and Foxp3 immunofluorescence staining of tumors in both water/ISoPD-1 and castalagin/IsoPD-1 groups. FIG. 10C Box plot for the ratio CD8^+/Foxp3^+CD4^+ in tumor in (n=8/group) obtained with immunofluorescence staining. *p<0.05. Immunofluorescence staining. Murine tumors preserved in optimal cutting temperature (OCT) compound were cut (5 μm-thick sections) and adhered to microscope slides and stored at −80C°. Upon the start of the experiment, slides were air dried and washed with cold acetone. To prevent non-specific binding to biotin, the Endogenous Avidin Biotin Blocking kit (ThermoFisher) was used. Additionally, tissues were incubated with 10% donkey serum in order to reduce background staining. Primary antibodies used are anti-CD4, anti-CD8, anti-Foxp3. Donkey anti-goat and donkey anti-rat conjugated to AF-488 were used as secondary antibodies and slides were incubated with Cy3-Streptavidin to detect biotinylated antibodies. Nuclei were visualized by counterstaining with DAPI (ThermoFisher). Images were generated using the whole slide scanner Olympus BX61VS (20× 0.75NA objective with a resolution of […]). The images were analysed using Visiomorph software (Visiopharm).
smiles,measurement,setting,value
"O=C1OC[C@H]2OC(=O)c3cc(O)c(O)c(O)c3-c3c(O)c(O)c(O)c4c3C(=O)O[C@H]([C@H]3OC(=O)c5c-4c(O)c(O)c(O)c5[C@@H]3O)[C@@H]2OC(=O)c2cc(O)c(O)c(O)c2-c2c1cc(O)c(O)c2O [castalagin, Castalagin]",dose dependence of anti-cancer activity,[1]; 6 concentrations from ⅛ to 3-fold the standard dose,dose-dependent effect with a potential plateau
same,antitumor effect,"[1]; dose experiment, 1/4 concentration dose (0.21 mg/kg)",no antitumor effect
same,anti-cancer activity (tumor size at sacrifice),"[1]; dose experiment, 3-fold concentration (2.55 mg/kg per mouse)",did not the standard dose
same,anti-cancer activity (tumor size at sacrifice),"[1]; dose experiment, standard dose (0.85 mg/kg)",anti-cancer activity became significant
same,anti-cancer activity (tumor size at sacrifice),"[1]; dose experiment, ½ dose (0.42 mg/kg)",Some anti-cancer activity was observed
same,ratio CD8^+/Foxp3^+ CD4^+ in tumor (immunofluorescence),[2],increase of the ratio CD8^+/Foxp3^+ CD4^+

# From patent publication US20230075822A1, “USE OF CASTALAGIN OR ANALOGS THEREOF FOR ANTI-CANCER EFFICACY AND TO INCREASE THE RESPONSE TO IMMUNE CHECKPOINT INHIBITORS” (THE ROYAL INSTITUTION FOR THE ADVANCEMENT OF …, priority 2020, published 2023)
